Results published in ChEMBL document CHEMBL1201862, “PubChem BioAssay data set” (2004).
The source made the active and inactive calls.

Assays:
[1] = system: INS1; assay: beta cell apoptosis inhibitors, cytokine rescue, dose response, luminescence, retest (AID 449756); assay type: functional, cell-based; conditions: Rattus norvegicus;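 note: cell death triggered by IL-1 beta plus TNF-alpha plus IFN-gamma mixture; protective hits raise ATP signal compared with cytokine alone wells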
[2] = Shn3 3'UTR reporter inhibitors, dose response, cell-based, Clone20 osteoblasts, firefly luciferase, cherry-picked (AID 624132); assay type: functional;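 note: firefly luciferase luminescence from reporter carrying the Shn3 3'UTR in osteoblasts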
[3] = HepG2 cell cytotoxicity, dose response, cytotoxicity control for Shn3 inhibitor project, CellTiter-Glo, cherry-picked (AID 624134); assay type: functional, cell-based
[4] = molecular target: T1, Protein skinhead-1 (Caenorhabditis elegans, UniProt P34707); assay type: functional
T1 sequence (P34707 whole entry): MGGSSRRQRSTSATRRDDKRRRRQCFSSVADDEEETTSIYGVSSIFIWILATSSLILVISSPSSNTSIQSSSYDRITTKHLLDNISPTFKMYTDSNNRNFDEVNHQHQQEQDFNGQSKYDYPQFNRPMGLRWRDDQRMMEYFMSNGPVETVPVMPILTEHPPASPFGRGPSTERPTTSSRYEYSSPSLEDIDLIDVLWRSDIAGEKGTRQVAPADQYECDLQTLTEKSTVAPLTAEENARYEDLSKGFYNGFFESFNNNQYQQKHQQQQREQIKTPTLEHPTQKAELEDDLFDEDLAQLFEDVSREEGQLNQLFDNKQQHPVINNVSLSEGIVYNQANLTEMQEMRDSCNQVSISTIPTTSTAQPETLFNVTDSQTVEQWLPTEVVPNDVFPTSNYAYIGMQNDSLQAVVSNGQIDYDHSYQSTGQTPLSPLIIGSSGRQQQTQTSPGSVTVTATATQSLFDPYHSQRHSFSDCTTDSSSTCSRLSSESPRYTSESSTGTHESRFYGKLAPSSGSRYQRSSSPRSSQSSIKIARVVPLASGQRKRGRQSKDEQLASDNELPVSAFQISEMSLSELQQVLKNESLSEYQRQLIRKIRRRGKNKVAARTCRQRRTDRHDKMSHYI

[5] = molecular target: T2, Corticotropin-releasing factor receptor 2/Corticotropin-releasing factor-binding protein (Homo sapiens, UniProt P24387+Q13324); assay: Dose Response confirmation of uHTS hits for small molecule antagonists of the CRF-binding protein and CRF-R2 receptor complex.; assay type: functional; conditions: read-out: IC50_Mean
T2 sequence (Q13324 whole entry): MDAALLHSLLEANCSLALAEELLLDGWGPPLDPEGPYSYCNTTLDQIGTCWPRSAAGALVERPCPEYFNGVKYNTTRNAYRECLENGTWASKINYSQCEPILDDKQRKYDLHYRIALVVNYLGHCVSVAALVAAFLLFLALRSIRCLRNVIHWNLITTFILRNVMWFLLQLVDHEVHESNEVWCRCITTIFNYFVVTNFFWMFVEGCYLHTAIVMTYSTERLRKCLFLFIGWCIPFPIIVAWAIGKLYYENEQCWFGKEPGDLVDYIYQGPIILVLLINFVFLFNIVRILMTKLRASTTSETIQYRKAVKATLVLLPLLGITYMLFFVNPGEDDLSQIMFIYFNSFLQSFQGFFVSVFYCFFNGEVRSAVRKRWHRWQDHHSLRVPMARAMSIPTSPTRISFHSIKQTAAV
T2 sequence (P24387 whole entry): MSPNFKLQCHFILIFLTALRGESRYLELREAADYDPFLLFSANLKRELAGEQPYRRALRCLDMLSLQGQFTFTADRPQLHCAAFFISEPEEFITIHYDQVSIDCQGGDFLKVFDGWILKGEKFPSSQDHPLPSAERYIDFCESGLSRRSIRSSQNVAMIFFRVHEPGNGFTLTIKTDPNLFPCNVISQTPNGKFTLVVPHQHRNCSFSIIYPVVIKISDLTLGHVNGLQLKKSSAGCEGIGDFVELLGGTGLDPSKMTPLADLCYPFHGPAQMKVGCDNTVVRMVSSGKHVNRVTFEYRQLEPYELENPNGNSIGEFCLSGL

[6] = molecular target: T2, Corticotropin-releasing factor receptor 2/Corticotropin-releasing factor-binding protein; assay: activators of CRF receptor 2 with binding protein – uHTS hits, confirmation (AID 602473); assay type: functional; conditions: read-out: EC50_Mean
[7] = molecular target: T3, Polyadenylate-binding protein 1 (Homo sapiens, UniProt P11940); assay: PABP1 MLLE–PAM2 interaction inhibitors, dose response, miRNA deadenylation inhibitor project, biochemical, fluorescence polarization, Cy5-PAM2 peptide, secondary (AID 602260); assay type: functional; conditions: read-out: IC50_Mean
T3 sequence (P11940 whole entry): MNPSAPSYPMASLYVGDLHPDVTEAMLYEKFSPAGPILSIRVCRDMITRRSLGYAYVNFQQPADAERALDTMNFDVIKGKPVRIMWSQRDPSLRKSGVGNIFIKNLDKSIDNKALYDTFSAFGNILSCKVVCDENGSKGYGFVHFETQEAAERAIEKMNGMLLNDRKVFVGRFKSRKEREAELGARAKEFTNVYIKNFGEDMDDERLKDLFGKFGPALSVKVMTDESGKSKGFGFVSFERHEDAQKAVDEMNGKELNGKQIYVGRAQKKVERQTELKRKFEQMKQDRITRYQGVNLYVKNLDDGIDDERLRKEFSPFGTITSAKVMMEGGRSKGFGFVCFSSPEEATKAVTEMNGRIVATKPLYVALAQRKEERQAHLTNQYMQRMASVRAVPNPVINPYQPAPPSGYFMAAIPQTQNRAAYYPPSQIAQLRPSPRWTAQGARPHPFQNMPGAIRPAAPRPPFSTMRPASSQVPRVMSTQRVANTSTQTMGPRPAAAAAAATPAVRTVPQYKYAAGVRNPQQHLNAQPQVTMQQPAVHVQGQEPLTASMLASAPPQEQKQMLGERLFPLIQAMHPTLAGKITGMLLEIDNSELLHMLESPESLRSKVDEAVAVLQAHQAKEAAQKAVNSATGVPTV

[8] = molecular target: T3, Polyadenylate-binding protein 1; assay: PABP1 MLLE–PAM2 binding inhibitor potency, dose response, biochemical, fluorescence polarization, FITC-PAM2 peptide (AID 602259); assay type: functional; conditions: read-out: IC50_Mean
[9] = microbe, parasite or virus in culture; assay type: functional; conditions: Mycobacterium tuberculosis
[10] = molecular target: Luciferin 4-monooxygenase (Photinus pyralis, UniProt P08659); assay: firefly luciferase enzyme inhibitors, dose response, biochemical, luminescence (AID 1891)
Luciferin 4-monooxygenase, sequence (P08659 whole entry): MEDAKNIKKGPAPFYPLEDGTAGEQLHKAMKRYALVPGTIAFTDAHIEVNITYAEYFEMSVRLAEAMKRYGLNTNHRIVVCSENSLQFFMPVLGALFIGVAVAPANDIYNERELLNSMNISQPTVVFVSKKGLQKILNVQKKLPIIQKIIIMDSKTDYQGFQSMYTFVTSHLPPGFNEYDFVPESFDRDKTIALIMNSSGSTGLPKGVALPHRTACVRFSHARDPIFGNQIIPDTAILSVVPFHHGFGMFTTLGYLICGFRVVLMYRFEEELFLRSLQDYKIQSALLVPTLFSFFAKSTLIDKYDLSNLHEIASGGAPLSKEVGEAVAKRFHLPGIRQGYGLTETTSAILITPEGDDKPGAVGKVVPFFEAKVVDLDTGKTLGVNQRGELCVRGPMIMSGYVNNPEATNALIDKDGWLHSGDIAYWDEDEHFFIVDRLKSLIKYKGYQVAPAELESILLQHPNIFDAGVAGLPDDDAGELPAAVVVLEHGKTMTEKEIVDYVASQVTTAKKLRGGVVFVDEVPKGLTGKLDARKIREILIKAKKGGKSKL

[11] = Luminescence Cell-Based Dose Confirmation HTS to Identify Inhibitors of Platelet Dense Granule Release. [Related pubchem assays: 1663 (Primary HTS), 1678 (Summary of Project)]; assay type: functional
[12] = Luminescence Cell-Based Dose Confirmation HTS to Identify Activators of 5'UTR Stem-Loop Driven Alpha-Synuclein mRNA Translation in H4 Neuroglioblastoma Cells. [Related pubchem assays: 1829 (Project Summary), 1814 (Primary HTS)]; assay type: functional
[13] = system: H4; assay: Luminescence Cell-Based Dose Response HTS to Identify Activators of 5'UTR Stem-Loop Driven Prion Protein mRNA Translation in H4 Neuroglioblastoma Cells. [Related pubchem assays: 1829 (Project Summary), 1814 (Primary HTS)]; assay type: functional; conditions: Homo sapiens
[14] = molecular target: Cytochrome P450 2C19 (Homo sapiens, UniProt P33261); assay: Cytochrome panel assay with activity outcomes. Panel member name: p450-cyp2c19 Compounds with AC50 equal or less than 10 uM are considered active; assay type: functional; conditions: read-out: AC50
Cytochrome P450 2C19, sequence (P33261 whole entry): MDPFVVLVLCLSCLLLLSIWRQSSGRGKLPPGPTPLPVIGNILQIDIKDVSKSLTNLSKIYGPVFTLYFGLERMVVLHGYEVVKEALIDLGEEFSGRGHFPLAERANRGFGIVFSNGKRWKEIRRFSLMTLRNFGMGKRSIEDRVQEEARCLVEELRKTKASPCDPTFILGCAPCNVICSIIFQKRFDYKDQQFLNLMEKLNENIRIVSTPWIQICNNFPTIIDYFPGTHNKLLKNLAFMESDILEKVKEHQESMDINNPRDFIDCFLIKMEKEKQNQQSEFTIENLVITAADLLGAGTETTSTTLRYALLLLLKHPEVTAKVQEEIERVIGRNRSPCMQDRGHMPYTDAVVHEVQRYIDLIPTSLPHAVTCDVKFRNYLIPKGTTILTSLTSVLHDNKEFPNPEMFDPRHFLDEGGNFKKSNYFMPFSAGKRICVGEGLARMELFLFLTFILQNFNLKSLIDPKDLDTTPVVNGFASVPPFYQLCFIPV

[15] = molecular target: Cytochrome P450 2C9 (Homo sapiens, UniProt P11712)
Cytochrome P450 2C9, sequence (P11712 whole entry): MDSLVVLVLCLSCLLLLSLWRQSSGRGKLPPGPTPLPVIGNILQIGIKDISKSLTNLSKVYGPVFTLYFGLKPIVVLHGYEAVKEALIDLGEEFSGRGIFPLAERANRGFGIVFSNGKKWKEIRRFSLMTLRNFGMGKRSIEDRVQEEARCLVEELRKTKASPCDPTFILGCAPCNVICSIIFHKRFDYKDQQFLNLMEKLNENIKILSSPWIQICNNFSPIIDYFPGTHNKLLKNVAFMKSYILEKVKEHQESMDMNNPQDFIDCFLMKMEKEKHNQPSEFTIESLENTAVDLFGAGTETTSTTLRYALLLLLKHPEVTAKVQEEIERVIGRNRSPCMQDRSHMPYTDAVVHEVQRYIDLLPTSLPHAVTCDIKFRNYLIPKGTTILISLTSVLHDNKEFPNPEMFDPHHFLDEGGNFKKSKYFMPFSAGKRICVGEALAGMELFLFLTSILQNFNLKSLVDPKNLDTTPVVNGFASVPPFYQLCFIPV

[16] = inhibitors of intracellular T. cruzi replication, confirmation, NIH3T3 host cells, beta-gal luminescence (AID 2044); assay type: functional, cell-based;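 note: intracellular parasites grown in NIH/3T3 mouse fibroblasts as host cells; luminescent beta-galactosidase reporter signal from transgenic T. cruzi replicating inside host cells; inhibitors lower the luminescence signal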
[17] = cytotoxicity toward NIH3T3 fibroblasts, dose response, counter-screen, cell-based, ATP luminescence, mouse fibroblasts (AID 2010); assay type: functional;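 note: cells exposed to compound for about 90 hours before reading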
[18] = HEp-2 cell cytotoxicity, dose response, cytotoxicity control for RSV inhibitor project, HTS (AID 2410); assay type: functional; conditions: human respiratory syncytial virus

CN(C)c1ccc(/C=C/c2ccc3ccccc3n2)cc1
AC50 [1]: 3.17 µM (active)
AC50 [2]: 1.33 µM (active)
AC50 [3]: 15.9 µM (active)
IC50 [4]: > 100 µM (inactive)

CC1CN(S(=O)(=O)c2cccc(C(=O)OCC(=O)Nc3ccc4c(c3)OCO4)c2)CC(C)O1 (stereo not drawn)
IC50 [4]: > 100 µM (inactive)

O=C(Nc1nccs1)c1ccc(-c2ccc(F)cc2)o1
IC50 [4]: > 100 µM (inactive)

CCOC(=O)c1c(C)cc(C)n2c1nc1ccccc12
IC50 [4]: > 100 µM (inactive)

CCOc1ccc(NC(=O)[C@@H](NC(=O)c2ccccc2)[C@@H](C)CC)cc1
IC50 [5]: > 47.1 µM (inactive)
EC50 [6]: > 53 µM (inactive)

Cc1cccc(C)c1OCC(O)Cn1nnc2ccccc21 (stereo not drawn)
IC50 [5]: > 47.1 µM (inactive)
EC50 [6]: > 53 µM (inactive)

COc1ccc(Cc2nnc(NC(=O)C3CCCO3)s2)cc1OC (stereo not drawn)
IC50 [7]: > 66 µM (inactive)
IC50 [8]: > 66 µM (inactive)

CCOC(=O)Cc1csc(NC(=S)NC(=O)c2ccccc2Br)n1
IC50 [7]: > 66 µM (inactive)
IC50 [8]: > 66 µM (inactive)

Cc1sc(NC(=O)CCCC(=O)O)c(C(N)=O)c1-c1ccccc1
IC50 [7]: > 66 µM (inactive)
IC50 [8]: > 66 µM (inactive)

Cc1cc(C)c2oc(-c3ccc(C)c(NC(=S)NC(=O)/C=C/c4ccco4)c3)nc2c1
CC50 [9]: > 40 µM (active)

CCN(CC)CCOC(=O)c1ccc(NC(=O)CCCN2C(=O)/C(=C\c3cccs3)SC2=S)cc1
IC50 [4]: > 100 µM (inactive)

Cc1onc(-c2ccccc2Cl)c1C(=O)Nc1ccc(Br)cc1
EC50 [10]: > 112 µM (not active)
EC50 [11]: > 112 µM (not active)

COC(=O)c1sc(NC(=O)c2ccc(C)o2)nc1C
EC50 [10]: 5.6 µM (active)
EC50 [11]: > 112 µM (not active)

CCOC(=O)c1c(-c2cccs2)csc1NC(=O)CN1CC(C)OC(C)C1 (stereo not drawn)
IC50 [4]: > 100 µM (inactive)

O=C(C[C@@H]1C/C=C\C[C@H](NC(=O)OCC2c3ccccc3-c3ccccc32)C(=O)OC[C@H]2CCCN2C1=O)N[C@@H](CO)Cc1ccccc1
CC50 [9]: > 40 µM (active)

CC(C)C(NS(=O)(=O)c1ccc2c(c1)oc(=O)n2C)C(=O)N1CCN(C2CCCCC2)CC1 (stereo not drawn)
IC50 [5]: > 47.1 µM (inactive)
EC50 [6]: > 53 µM (inactive)

N#C/C(=C\c1ccco1)c1nc2ccccc2s1
IC50 [4]: > 100 µM (inactive)

O=c1oc(-c2ccc([N+](=O)[O-])cc2)nc2ccc(O)cc12
EC50 [10]: 0.995 µM (active)
EC50 [11]: 1.72 µM (active)

O=c1c2ccccc2nnn1Cc1ccc(Br)cc1
IC50 [4]: 87.8 µM (inactive)

Cc1ccc(S(=O)(=O)c2cc3ccccc3oc2=O)cc1
EC50 [12]: > 120 µM (not active)
EC50 [13]: > 120 µM (not active)

Cc1cccc(NS(=O)(=O)c2cccc(C(=O)N3CCN(c4ccccn4)CC3)c2)c1
IC50 [5]: > 47.1 µM (inactive)
EC50 [6]: > 53 µM (inactive)

CCOc1ccc(C2c3[nH]c4ccccc4c3C[C@H]3C(=O)N(C4CCN(Cc5ccccc5)CC4)CC(=O)N23)cc1OC (stereo partly drawn)
CC50 [9]: 38.9 µM (active)

CC(C)c1nc2scc(-c3ccc(Cl)cc3)c2c(=O)n1N
CC50 [9]: > 40 µM (active)

COC(=O)c1cn(NC(=O)c2ccc(F)cc2)c(=O)c2ccccc12
AC50 [14]: 17.8 µM (inconclusive)
IC50 [5]: > 47.1 µM (inactive)
EC50 [6]: > 53 µM (inactive)
AC50 [15]: 39.8 µM (inconclusive)

O=C(CCCn1cc([N+](=O)[O-])cn1)NC1CCCCCC1
EC50 [10]: > 112 µM (not active)
EC50 [11]: > 112 µM (not active)

COC(=O)CCCC1=CC2=C(c3ccccc3)C(=O)C(C)(OC(=O)C3CCCC3)C(=O)C2=CN1CCN1CCOCC1 (stereo not drawn)
IC50 [7]: > 66 µM (inactive)
IC50 [8]: > 66 µM (inactive)

CCC1OC(=O)C(C)C(OC2C[C@@](C)(OC)C(O)C(C)O2)C(C)C(O[C@@H]2OC(C)CC(N(C)C)C2O)[C@](C)(O)CC(C)C(=NOCOCCOC)C(C)C(O)[C@]1(C)O (stereo partly drawn)
IC50 [5]: > 47.1 µM (inactive)
EC50 [6]: > 53 µM (inactive)

COC(=O)C1=C(C)N(Cc2ccccc2)C(=O)N[C@H]1CCc1ccccc1
IC50 [5]: > 47.1 µM (inactive)
EC50 [6]: > 53 µM (inactive)

Cc1cc2cc(CNC(=O)c3ccc(S(=O)(=O)N4CCOCC4)cc3)ccc2[nH]1
IC50 [7]: > 66 µM (inactive)
IC50 [8]: > 66 µM (inactive)

COc1ccccc1C1CCN(Cc2ccc3ccccc3c2)CC1
EC50 [16]: 1.2 µM (active)
CC50 [9]: > 40 µM (active)
EC50 [17]: > 60 µM (not active)

COc1ccccc1-n1c(SCC(=O)Nc2cc(C)on2)nc2c(c1=O)SCC2
AC50 [3]: > 70 µM (inactive)

O=C(NC(=S)Nc1ccc(S(=O)(=O)N2CCCCC2)cc1)c1cccs1
IC50 [7]: > 66 µM (inactive)
IC50 [8]: > 66 µM (inactive)

CC(C)Cc1nc2oc3c(N4CCN(CCO)CC4)ncnc3c2c2c1CCCC2
CC50 [9]: 33.8 µM (active)

Cc1cc(C)nc(Nc2nc(=O)c3ccccc3s2)n1
IC50 [7]: > 66 µM (inactive)
IC50 [8]: > 66 µM (inactive)

CCN(CC(=O)Nc1sc2c(c1C#N)CCCC2)CC(=O)NC1CCS(=O)(=O)C1 (stereo not drawn)
EC50 [10]: > 112 µM (not active)
EC50 [11]: > 112 µM (not active)

COn1c(-c2ccc(Cl)cc2)nc2ccc(Cl)cc21
CC50 [18]: 35.3 µM (active)
IC50 [4]: 10.8 µM (active)

O=C(NC(=S)Nc1ccc(Cc2ccncc2)cc1)c1ccccc1Cl
IC50 [7]: > 66 µM (inactive)
IC50 [8]: > 66 µM (inactive)

COc1ccc2oc(-c3ccncc3)cc(=O)c2c1
IC50 [7]: > 66 µM (inactive)
IC50 [8]: > 66 µM (inactive)

O=C(O)CCCN1C(=O)c2ccccc2Sc2ncccc21
IC50 [4]: > 100 µM (inactive)

CCCCOc1ccc(N2C(=O)C(C)CNC2=S)cc1 (stereo not drawn)
IC50 [7]: > 66 µM (inactive)
IC50 [8]: 41.1 µM (inactive)

CC(=O)Nc1ccc(S(=O)(=O)N(C)CC(=O)NNC(=O)c2cccs2)cc1
IC50 [4]: > 100 µM (inactive)

CC(C)c1ccc(Oc2cccc3c2S(=O)(=O)N(C2CCCC2)CC(COCc2ccccc2)O3)cc1 (stereo not drawn)
AC50 [2]: 15.5 µM (active)
AC50 [3]: > 70 µM (inactive)

COc1ccc(NC(=O)c2cc3ccccc3o/c2=N\NS(=O)(=O)c2ccc(C)cc2)cc1
EC50 [13]: 0.575 µM (active)

NC(=O)c1ccccc1N/C=C/C(=O)c1ccc(Cl)cc1Cl
EC50 [10]: 1.1 µM (active)
EC50 [11]: 8.86 µM (active)

CCNc1nc(NCC)nc(N/N=C/c2ccc([N+](=O)[O-])o2)n1
CC50 [9]: 39 µM (active)
